PubChem BioAssay AID1963449 (Molecular Pharmacology Branch, DTP, NCI, 2024)
Several values for one entry are separate records, joined by “and”; a condition that tells them apart may be missing. Equal entries are not always repeated.

Tested on: 596521-263-R-J1-PDC complex spheroid growth
Experiment: Anticancer human tumor 596521-263-R-J1-PDC patient-derived soft tissue sarcoma cell line growth inhibition [Asc]
Conditions: for viability, T/C: stronger effect = lower value
Procedure, shortened: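 Tumor cells were grown as complex spheroids with human endothelial cells (HUVEC) and human mesenchymal stem cells as stroma. Agents were tested alone and in combination, in half-log steps down from the clinical Cmax, or from 10 microM where Cmax was unknown.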
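Further: spheroids exposed to compounds for 7 days.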

CCN1CCN(Cc2ccc(Nc3ncc(F)c(-c4cc(F)c5nc(C)n(C(C)C)c5c4)n3)nc2)CC1 + Cc1c(S(C)(=O)=O)c(-c2cc(F)cc(N3CCN(c4ccc(NS(=O)(=O)c5ccc(NC(CCN6CCC(C(=O)OCCCP(=O)(O)O)CC6)CSc6ccccc6)c(S(=O)(=O)C(F)(F)F)c5)cc4)CC3)c2)c(-c2ccc(Cl)cc2)n1C(C)C showed an IC50 (curve of first compound, second compound 0.0316 µM) greater than 1000 nM, an IC50 (curve of first compound, second compound 0.1 µM) greater than 1000 nM and an IC50 (curve of first compound, second compound 0.316 µM) greater than 1000 nM. The IC50 (curve of first compound, second compound 1 µM) was greater than 1000 nM, the IC50 (curve of first compound, second compound 3.16 µM) was greater than 1000 nM and the IC50 (curve of first compound, second compound 10 µM) was greater than 1000 nM. It also gave a viability, T/C (second compound 0.0316 µM, first compound 0.00316 µM) of 94.2%, a viability, T/C (second compound 0.0316 µM, first compound 0.01 µM) of 95.2% and a viability, T/C (second compound 0.0316 µM, first compound 0.0316 µM) of 92%. It also gave a viability, T/C (second compound 0.0316 µM, first compound 0.1 µM) of 84.3%, a viability, T/C (second compound 0.0316 µM, first compound 0.316 µM) of 91.4% and a viability, T/C (second compound 0.0316 µM, first compound 1 µM) of 97%. It also gave a viability, T/C (second compound 0.1 µM, first compound 0.00316 µM) of 93.7%, a viability, T/C (second compound 0.1 µM, first compound 0.01 µM) of 91.5% and a viability, T/C (second compound 0.1 µM, first compound 0.0316 µM) of 94.1%. For the same compound, the viability, T/C (second compound 0.1 µM, first compound 0.1 µM) was 81.1%, the viability, T/C (second compound 0.1 µM, first compound 0.316 µM) was 88.7% and the viability, T/C (second compound 0.1 µM, first compound 1 µM) was 82%. It also gave a viability, T/C (second compound 0.316 µM, first compound 0.00316 µM) of 102%, a viability, T/C (second compound 0.316 µM, first compound 0.01 µM) of 79% and a viability, T/C (second compound 0.316 µM, first compound 0.0316 µM) of 77.8%. It also gave a viability, T/C (second compound 0.316 µM, first compound 0.1 µM) of 75.7%, a viability, T/C (second compound 0.316 µM, first compound 0.316 µM) of 75.3% and a viability, T/C (second compound 0.316 µM, first compound 1 µM) of 83.8%. It also gave a viability, T/C (second compound 1 µM, first compound 0.00316 µM) of 83%, a viability, T/C (second compound 1 µM, first compound 0.01 µM) of 73.9% and a viability, T/C (second compound 1 µM, first compound 0.0316 µM) of 78.5%. For the same compound, the viability, T/C (second compound 1 µM, first compound 0.1 µM) was 70.5%, the viability, T/C (second compound 1 µM, first compound 0.316 µM) was 87.7% and the viability, T/C (second compound 1 µM, first compound 1 µM) was 67.1%. It also gave a viability, T/C (second compound 3.16 µM, first compound 0.00316 µM) of 68.1%, a viability, T/C (second compound 3.16 µM, first compound 0.01 µM) of 69.6% and a viability, T/C (second compound 3.16 µM, first compound 0.0316 µM) of 63.3%. For the same compound, the viability, T/C (second compound 3.16 µM, first compound 0.1 µM) was 59.6%, the viability, T/C (second compound 3.16 µM, first compound 0.316 µM) was 66.8% and the viability, T/C (second compound 3.16 µM, first compound 1 µM) was 66.4%. The viability, T/C (second compound 10 µM, first compound 0.00316 µM) was 58.1%, the viability, T/C (second compound 10 µM, first compound 0.01 µM) was 57.1% and the viability, T/C (second compound 10 µM, first compound 0.0316 µM) was 56%. The viability, T/C (second compound 10 µM, first compound 0.1 µM) was 54.8%, the viability, T/C (second compound 10 µM, first compound 0.316 µM) was 57% and the viability, T/C (second compound 10 µM, first compound 1 µM) was 55.1%.

In the case of C#Cc1c(F)ccc2cc(O)cc(-c3ncc4c(N5CC6CCC(C5)N6)nc(OCC56CCCN5CC(F)C6)nc4c3F)c12 (centres undefined), the viability, T/C (compound 0.0316 µM) is reported as 102% and 104% (2×), the viability, T/C (compound 0.1 µM) is reported as 87% and 90.2% and 98.9% and the viability, T/C (compound 0.316 µM) is reported as 99.2% and 109% and 98.2%. The viability, T/C (compound 1 µM) was 102% (2×) and 112%, the viability, T/C (compound 3.16 µM) was 100% and 94.5% and 103% and the viability, T/C (compound 10 µM) was 93.4% and 85.1% and 88.1%. For the same compound, the IC50 (curve of compound) was greater than 10000 nM.
